Experimental data: US20090087845A1, “Genetic Markers Of True Low Birth Weight” (priority 2005, published 2009)
Where “and” joins values, the source holds several entries; their conditions need not be identical. Equal values may be shown once.

Tested on: placental gene expression
Assay: Placental gene expression (Affymetrix Rat Genome Chip 230.2) after SSRI (fluoxetine) exposure throughout gestation
Type: in vivo
Conditions: placenta, SSRI-exposed samples
Protocol: Gene expression data from pregnant rats under different forms of dietary restriction was gathered. […] (N=8) • Group 2 (CR50): Rats Given 50% of their Normal Daily Intake of Food. (N=5) • Group 3 (CR70): Rats Given 70% of their Normal Daily Intake of Food. […] (N=6) Placentas from the rats of each Group were harvested on Day 21 of gestation. RNA was extracted and gene expression was measured based on hybridization of RNA to Affymetrix Rat Genome Chips™ (230.2) (Affymetrix, Santa Clara, Calif.).
In order to determine whether placental gene expression profiling can be used to identify other prenatal exposures such as toxicants and drugs, a group of rats with drug exposure was monitored as described above. […] As with control, CR50, CR70, and HF groups, placentas from the mothers were sampled after 21 days of gestation and gene expression monitored utilizing an Affymetrix Rat Genome Chip.

In the case of `CNCCC(Oc1ccc(C(F)(F)F)cc1)c1ccccc1` (stereo not shown) [fluoxetine, Fluoxetine], the “expression, probeset 1384527_at” value is reported as 5 and 5.16 and 4.806 and 4.891 and 4.944 and 4.995, the “expression, probeset 1384528_at” value is reported as 7.1 and 7.424 and 7.73 and 8.04 and 7.505 and 7.682 and the “expression, probeset 1384641_at” value is reported as 5.867 and 5.877 and 5.784 and 5.513 and 5.517 and 5.626. For the same compound, the “expression, probeset 1384849_at” value was 4.659 and 4.629 and 5.174 and 5.223 and 4.879 and 4.92, the “expression, probeset 1384923_at” value was 6.977 and 7.2 and 6.818 and 6.939 and 6.837 and 6.982 and the “expression, probeset 1385137_at” value was 6.326 and 6.421 and 6.154 and 5.912 and 6.02 and 6.248. The “expression, probeset 1385163_at” value was 6.063 and 5.993 and 6.045 and 5.955 and 5.885 and 6.124, the “expression, probeset 1385336_at” value was 4.379 and 4.499 and 4.426 and 4.399 and 4.645 and 4.457 and the “expression, probeset 1385442_at” value was 7.16 and 7.404 and 6.997 and 6.879 and 6.92 and 6.943. For the same compound, the “expression, probeset 1385518_at” value was 6.937 and 6.773 and 6.99 and 6.986 and 7.076 and 6.76, the “expression, probeset 1385535_at” value was 4.02 and 3.842 and 4.063 and 4.09 and 4.042 and 4.166 and the “expression, probeset 1385652_at” value was 7.797 and 7.898 and 7.543 and 7.484 and 7.575 and 7.378. For the same compound, the “expression, probeset 1385676_at” value was 8.114 and 8.061 and 8.462 and 8.533 and 8.039 and 8.344, the “expression, probeset 1385698_at” value was 3.878 and 3.859 and 3.777 and 3.605 and 3.7424 and 3.746 and the “expression, probeset 1385760_at” value was 7.137 and 7.354 and 6.648 and 7.09 and 7.316 and 7.321. For the same compound, the “expression, probeset 1385775_at” value was 4.145 and 4.375 and 3.896 and 3.993 and 4.079 and 4.161, the “expression, probeset 1386125_at” value was 6.311 and 6.381 and 6.134 and 6.261 and 6.055 and 6.325 and the “expression, probeset 1386158_at” value was 4.004 and 4.128 and 4.063 and 4.152 and 3.988 and 3.931. The “expression, probeset 1386414_at” value was 6.861 and 7.196 and 6.932 and 7.199 and 7.249 and 7.033, the “expression, probeset 1386519_x_at” value was 7.188 and 7.295 and 7.082 and 7.038 and 7.203 and 7.126 and the “expression, probeset 1387083_at” value was 5.565 and 6.278 and 5.686 and 5.781 and 5.789 and 5.938. The “expression, probeset 1387136_at” value was 6.691 and 6.697 and 6.593 and 6.718 and 6.67 and 6.537, the “expression, probeset 1387406_at” value was 6.01 and 6.243 and 5.981 (2×) and 5.916 and 6.087 and the “expression, probeset 1387459_at” value was 3.484 and 3.639 and 3.932 and 3.86 and 3.992 and 3.799. The “expression, probeset 1387764_at” value was 5.733 and 5.268 and 5.537 and 5.549 and 5.494 and 5.603, the “expression, probeset 1387899_at” value was 5.335 and 5.408 and 5.339 and 5.026 and 4.958 and 5.215 and the “expression, probeset 1387912_at” value was 8.618 and 8.518 and 8.718 and 9.05 and 9.01 and 8.757. For the same compound, the “expression, probeset 1388037_at” value was 4.856 and 4.68 and 4.647 and 4.894 and 4.953 and 4.682, the “expression, probeset 1388091_at” value was 4.362 and 4.794 and 4.302 and 4.133 and 4.449 and 4.329 and the “expression, probeset 1388390_at” value was 10.86 and 10.87 and 11.34 and 11.8393 and 11.4165 and 11.4451. The “expression, probeset 1388396_at” value was 8.176 and 7.836 and 8.032 and 8.018 and 7.774 and 8.067, the “expression, probeset 1388447_at” value was 7.564 and 7.841 and 7.682 and 7.537 and 7.38 and 7.532 and the “expression, probeset 1388486_at” value was 7.701 and 7.565 and 7.723 and 7.751 and 7.921 and 7.749. For the same compound, the “expression, probeset 1388781_at” value was 5.825 and 6.004 and 5.674 and 5.735 and 5.979 and 5.673, the “expression, probeset 1388938_at” value was 9.061 and 9.268 and 8.805 and 8.994 and 8.728 and 9.107 and the “expression, probeset 1389095_at” value was 5.489 and 5.217 and 5.112 and 5.397 and 5.478 and 5.073. For the same compound, the “expression, probeset 1389431_at” value was 6.558 and 6.3 and 6.381 and 6.49 and 6.951 and 6.471, the “expression, probeset 1389551_at” value was 8.862 and 8.606 and 8.909 and 8.801 and 8.621 and 8.842 and the “expression, probeset 1389664_at” value was 7.741 and 8.146 and 7.529 and 7.949 and 7.982 and 7.952. The “expression, probeset 1389835_at” value was 4.064 and 3.784 and 4.093 and 4.045 (2×) and 4.18, the “expression, probeset 1389917_at” value was 5.998 and 5.507 and 6.012 and 5.987 and 5.908 and 5.888 and the “expression, probeset 1389938_at” value was 3.638 and 3.579 and 3.678 and 3.837 and 3.753 and 3.593. The “expression, probeset 1390090_at” value was 7.476 and 7.464 and 7.498 and 7.393 and 7.3 and 7.578, the “expression, probeset 1390259_at” value was 4.304 and 4.546 and 4.677 and 4.255 and 4.358 and 4.411 and the “expression, probeset 1390464_at” value was 5.625 and 5.847 and 5.541 and 5.807 and 5.983 and 5.83. The “expression, probeset 1390534_at” value was 6.478, the “expression, probeset 1390603_at” value was 6.467 and 6.868 and 6.527 and 6.621 and 6.242 and 6.674 and the “expression, probeset 1390649_at” value was 7.28 and 7.575 and 6.821 and 7.034 and 7.132 and 6.938. The “expression, probeset 1390892_at” value was 5.112 and 5.3382 and 4.891 and 5.21 and 4.944 and 5.358.
